Measured values published in article PMC6155608, “Substitution at the C-3 Position of Catechins Has an Influence on the Binding Affinities against Serum Albumin” (Molecules : A Journal of Synthetic Chemistry and Natural …, 2017).

How the values were obtained:
[1] = biological target: T1, bovine serum albumin (BSA) (Bos taurus, UniProt P02769); assay: Trp fluorescence quenching of BSA (Stern–Volmer analysis); type: binding; parameters: Kq value (Stern–Volmer quenching constant) against BSA: unit not given here; settings: 0.3 mg/mL BSA; for Kq value (Stern–Volmer quenching constant) against BSA: 20 °C, 50 mM sodium phosphate buffer pH 7.0, excitation 280 nm, means ± SE
T1 construct: BSA (F-V) and HSA (F-V) were purchased from Nacalai Tesque (Kyoto, Japan); purchased Nacalai Tesque (Kyoto, Japan)
Method: The fluorescence spectra of another natural catechin was also measured (data not shown).
From the data obtained by fluorescence analysis, the Stern–Volmer quenching constants (Kq values) were calculated by the Stern–Volmer relationship.
(§1) Analysis of fluorescence quenching was performed as described previously. A series of mixtures was prepared with catechins or their derivatives at various concentrations (as indicated in each figure legend) and a fixed concentration of BSA (0.3 mg/mL). After the mixture was incubated at 20 °C for 20 min, the fluorescence spectrum of BSA in the mixture was measured at 20 °C in 50 mM sodium phosphate buffer (pH 7.0) at an excitation wavelength of 280 nm and with emission in the range 290–450 nm. All measurements were performed in triplicate. Fluorescence quenching data were analyzed by the Stern–Volmer equation (Equation (1)): F0 = F (1 + Kq × Q),(1) where F0 and F are the relative fluorescence intensities of BSA without and with catechin, respectively, Kq is the Stern–Volmer quenching constant, and Q is the concentration of catechin.

[2] = biological target: T2, human serum albumin (HSA) (Homo sapiens, UniProt P02768); assay: Trp fluorescence quenching of HSA (Stern–Volmer analysis); type: binding; parameters: unit not given here; settings: 0.3 mg/mL HSA, excitation 280 nm; means ± SE
T2 construct: BSA (F-V) and HSA (F-V) were purchased from Nacalai Tesque (Kyoto, Japan); purchased Nacalai Tesque (Kyoto, Japan)
Method: Finally, we investigated the interaction between HSA and catechins and their derivatives (Figure 6). HSA has one Trp residue (Trp-214) located in drug-binding site I, and this residue behaves similarly to the Trp-213 of BSA [22]. […] Moreover, shift of the fluorescence peak wavelength against HSA was weaker than that against BSA.
as §1

T1 sequence (P02769 25-607): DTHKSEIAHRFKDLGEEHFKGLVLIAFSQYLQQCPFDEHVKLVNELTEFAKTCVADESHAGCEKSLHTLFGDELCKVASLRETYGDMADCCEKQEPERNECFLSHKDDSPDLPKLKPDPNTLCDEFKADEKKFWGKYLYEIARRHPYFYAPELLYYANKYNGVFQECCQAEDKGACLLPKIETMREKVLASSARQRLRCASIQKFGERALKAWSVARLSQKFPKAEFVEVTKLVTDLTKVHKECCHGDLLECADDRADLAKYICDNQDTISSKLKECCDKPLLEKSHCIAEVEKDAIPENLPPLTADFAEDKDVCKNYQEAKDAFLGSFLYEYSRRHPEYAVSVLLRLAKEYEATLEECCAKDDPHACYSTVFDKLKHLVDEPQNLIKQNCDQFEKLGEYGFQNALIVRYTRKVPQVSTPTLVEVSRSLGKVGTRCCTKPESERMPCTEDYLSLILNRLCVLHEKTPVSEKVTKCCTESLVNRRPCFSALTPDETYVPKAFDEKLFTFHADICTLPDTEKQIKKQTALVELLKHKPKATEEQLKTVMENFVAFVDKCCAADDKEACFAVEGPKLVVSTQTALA
T2 sequence (P02768 25-609): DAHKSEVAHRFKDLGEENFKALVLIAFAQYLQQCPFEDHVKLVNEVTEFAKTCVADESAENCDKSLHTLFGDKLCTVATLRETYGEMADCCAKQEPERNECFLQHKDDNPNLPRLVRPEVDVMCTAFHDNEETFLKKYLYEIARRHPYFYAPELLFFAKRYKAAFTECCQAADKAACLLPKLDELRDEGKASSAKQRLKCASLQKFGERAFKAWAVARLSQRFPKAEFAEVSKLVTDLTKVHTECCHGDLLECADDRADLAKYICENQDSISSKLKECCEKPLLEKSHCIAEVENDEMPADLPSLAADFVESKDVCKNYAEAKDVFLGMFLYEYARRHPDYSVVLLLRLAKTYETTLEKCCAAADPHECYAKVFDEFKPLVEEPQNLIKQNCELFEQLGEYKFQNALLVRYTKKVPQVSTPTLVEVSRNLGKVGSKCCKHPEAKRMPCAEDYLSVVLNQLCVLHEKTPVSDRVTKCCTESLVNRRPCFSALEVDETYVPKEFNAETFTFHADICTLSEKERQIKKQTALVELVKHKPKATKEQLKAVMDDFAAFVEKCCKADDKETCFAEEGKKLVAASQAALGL

| SMILES | Kq value (Stern–Volmer quenching constant) against BSA [1] | Kq value (Stern–Volmer quenching constant) against HSA [2] | effect on fluorescence intensity of Trp residues of BSA ([1]; excitation 280 nm) | shift of fluorescence peak wavelength of BSA ([1]; excitation 280 nm) |
| --- | --- | --- | --- | --- |
| Oc1cc(O)c2c(c1)O[C@H](c1ccc(O)c(O)c1)[C@@H](O)C2 [(+)-C, catechin] | 0.005 ± 0.0003 | 0.002 ± 0.0001 |  |  |
| Oc1cc(O)c2c(c1)O[C@H](c1ccc(O)c(O)c1)[C@H](O)C2 [(−)-EC, epicatechin] | 0.005 ± 0.0011 | 0.006 ± 0.0013 |  |  |
| O=C(O[C@H]1Cc2c(O)cc(O)cc2O[C@@H]1c1ccc(O)c(O)c1)c1cc(O)c(O)c(O)c1 [Cg, (−)-catechin gallate] | 0.034 ± 0.0092 | 0.011 ± 0.0011 |  |  |
| Oc1cc(O)c2c(c1)O[C@H](c1cc(O)c(O)c(O)c1)[C@H](O)C2 [EGC] | 0.001 ± 0.0003 | 0.001 ± 0.0002 |  |  |
| Oc1cc(O)c2c(c1)O[C@H](c1cc(O)c(O)c(O)c1)[C@@H](O)C2 [GC] | 0.001 ± 0.0001 | 0.001 ± 0.0001 |  |  |

Other lines, results leading:

| Kq value (Stern–Volmer quenching constant) against BSA [1] | Kq value (Stern–Volmer quenching constant) against HSA [2] | effect on fluorescence intensity of Trp residues of BSA ([1]; excitation 280 nm) | shift of fluorescence peak wavelength of BSA ([1]; excitation 280 nm) | SMILES |
| --- | --- | --- | --- | --- |
| 0.060 ± 0.0118 | 0.007 ± 0.0011 |  |  | O=C(O[C@@H]1Cc2c(O)cc(O)cc2O[C@@H]1c1ccc(O)c(O)c1)c1cc(O)c(O)c(O)c1 [ECg] |
| 0.225 ± 0.0192 | 0.033 ± 0.0065 | decreased in a dose-dependent manner | red-shifted | O=C(O[C@@H]1Cc2c(O)cc(O)cc2O[C@@H]1c1cc(O)c(O)c(O)c1)c1cc(O)c(O)c(O)c1 [EGCg, (−)-epigallocatechin gallate] |
| 0.019 ± 0.0030 | 0.009 ± 0.0008 |  |  | O=C(O[C@H]1Cc2c(O)cc(O)cc2O[C@@H]1c1cc(O)c(O)c(O)c1)c1cc(O)c(O)c(O)c1 [GCg] |
| 0.150 ± 0.0109 | 0.014 ± 0.0021 |  |  | COc1cc(C(=O)O[C@@H]2Cc3c(O)cc(O)cc3O[C@@H]2c2cc(O)c(O)c(O)c2)cc(O)c1O [Methyl-EGCg, epigallocatechin-3-O-methyl gallate] |
